Reference: PMC8998904, “Identification and New Indication of Melanin-Concentrating Hormone Receptor 1 (MCHR1) Antagonist Derived from Machine Learning and Transcriptome-Based Drug Repositioning Approaches” (International Journal of Molecular Sciences, 2022)
Blank lines part the entries; values can stand above or below the compound they belong to.

Columns and labels:
[1] = target: T1, hERG channel (Homo sapiens, UniProt Q12809); assay: Patch clamp assay on HEK293-hERG cells; assay type: cell-based
T1 construct: host or cells: HEK293
Procedure: (§1) An in vitro time-resolved fluorescence (TRF)-based binding assay for MCHR1 was performed to identify the MCHR1 antagonist from the 19 predicted compounds selected through in silico screening. […] In addition, a patch clamp assay was performed to measure the cardiotoxicity of the five compounds. […] Consequently, of the five compounds, only KRX-104130 and KRX-104165 overcame cardiotoxicity.
Patch clamp assays were performed on HEK293 cells stably expressing the hERG channel (HEK293-hERG cells; Genionics, Switzerland). When the cells were more than 80% confluent, they were freshly dislodged from flasks with 0.05% trypsin–EDTA for 1–2 min, spun down twice at 700× g, suspended into the extracellular solution (in mmol/L at 1.8 × 10^6 per mL: 137 NaCl, 4 KCl, 1 MgCl2, 1.8 CaCl2, 10 HEPES, and 10 glucose, pH 7.4, adjusted with NaOH), and dispensed into a patch clamp plate. The cell density was adjusted to 2–3 × 10^5 cells/mL. After dispensing, the cells were applied to the AutoPatch system (PatchXpress 7000A, Molecular Devices, Sunnyvale, CA, USA). The hERG currents were evoked by two voltage pulses at 3 s interval. The voltage pulse consisted of a 100-ms step to −30 mV, a conditioning prepulse (2 s duration, +25 mV or +45 mV), followed by a test pulse (2 s duration, −30 mV) from a holding potential of −70 mV. After a 3 s interval at −70 mV, a second pulse protocol was applied, consisting of a 100-ms step to −30 mV, a prepulse (2 s duration, +45 mV), followed by a test pulse (2 s duration, −30 mV). Leak currents were linearly subtracted, extrapolating the current elicited by a 100-ms step to −80 mV from a holding potential of −70 mV. The experiment was initiated with a buffer control in the absence of the drug to calculate the IC50. The test compound was applied at low to high concentrations, and the tail current was monitored continuously. The compound effects were tested using six concentrations in three-fold dilutions from 1 to 300 µM.

[2] = target: T2, human recombinant MCH-1 receptor (Homo sapiens, UniProt Q99705); assay: Time-resolved fluorescence (TRF)-based MCHR1 receptor-binding assay with Eu-MCH; settings: for inhibition at 10 µM: TRF MCHR1 binding, read-out: inhibition rate (%) at 10 μM; for IC50: TRF-based binding, 2 nM Eu-MCH
T2 construct: purchased Euroscreen S.A. (PerkinElmer)
Procedure: as §1
The receptor-binding affinities of the generated 19 compounds were determined by time-resolved fluorescence (TRF)-based receptor-binding assays using europium-labeled MCH (Eu-MCH) in 96-well AcroWell™ plates. The MCH labeled with europium at the N-1 position was supplied by the Wallac Labeling Service (PerkinElmer, Inc., Waltham, MA, USA). The human recombinant MCH-1 receptor membrane preparation (MCH-1/SLC1 membrane) was obtained from Euroscreen S.A. (PerkinElmer). The binding assay buffer contained 25 mM 4-(2-hydroxyethyl)-1-piperazineethanesulfonic acid (HEPES; pH 7.4), 5 mM MgCl2, 1 mM CaCl2, and 0.5% bovine serum albumin. Total binding was determined from the binding reaction in the presence of 2 nM Eu-MCH and 5 μg/unit MCH-1 receptor membrane for 90 min. Nonspecific Eu–MCH binding was defined in the presence of 0.5 µM unlabeled MCH. After incubation for 90 min, the plate was washed three times with 300 µL of ice-cold 25 mM HEPES buffer (pH 7.4) in an automatic vacuum filtration system. The Eu was dissociated from the bound ligand by the addition of 150 µL of DELFIA enhancement solution (Perkin Elmer) and incubated for 10 min with shaking. Fluorescence signals from dissociated Eu were measured using a multilabel reader (Envision, PerkinElmer) with an excitation wavelength (340 nm) and an emission wavelength (615 nm).

[3] = tested on: A375, A549, MCF7 and PC3 cells; assay: mRNA gene expression (transcriptome, DEG) analysis in four cell lines; assay type: cell-based, human; settings: 10 μM, 6 h; common gene of four cell lines
Procedure: Transcriptome analysis was performed to identify new indications of KRX-104130. For each of the four cell lines, human skin malignant melanoma cells (A375), human lung carcinoma cells (A549), human breast carcinoma cells (MCF7), and human prostate adenocarcinoma cells (PC3), 10 μM of KRX-104130 was administered for 6 h in the control and treatment groups. As an independent experiment was performed three times, considering the error, the average value was used for comparison. The change in gene expression levels was calculated by dividing the […]. Fold change (FC) was expressed as a positive or negative value when the gene expression value of the treatment group was greater or lower than that of the control group, respectively.
Four cell lines were used for the cell culture: A375, A549, MCF7, and PC3, purchased from the American Type Culture Collection (ATCC, Rockville, MD, USA). The A375 and A549 cells were cultured in RPMI-1640 medium supplemented with 10% fetal bovine serum (FBS) and 1% penicillin-streptomycin-glutamine. The MCF7 cells were cultured in Dulbecco’s modified Eagle’s medium (DMEM) with 10% FBS and 1% penicillin-streptomycin-glutamine. The PC3 cells were cultured in RPMI with 10% FBS, 1% penicillin-streptomycin-glutamine, 1 mM sodium pyruvate, and 10 mM HEPES. KRX-104130 was synthesized at the Research Center for Medicinal Chemistry, Korea Research Institute of Chemical Technology (KRICT, Daejeon, Korea).
After releasing the stock, the cells were used in the experiments and cultured for two weeks to stabilize. KRX-104130 was dissolved in dimethylsulfoxide (DMSO) to form a 10 mM stock solution and stored in a deep freezer (−80 °C). Six sheets were seeded in each of the four cell lines, three sheets of DMSO and KRX-104130 (DMSO × 3 and KRX-104130 × 3), and they were stored in an incubator for 24 h. Cells were plated at 1.1375 × 10^6 cells for A375, 1.3 × 10^6 cells for A549, 8.45 × 10^5 cells for MCF7, and 1.496 × 10^6 cells for PC3 under the culture conditions. After 24 h, DMSO and KRX-104130 were diluted 1000-fold in the medium, and the cells were treated with a final concentration of 0.1% DMSO and 10 μM KRX-104130. After 6 h, the medium was removed, and the cells were collected by treatment with 1 mL of TRIzol. After destroying the cells by pipetting, they were stored in a deep freezer (−80 °C).
The total RNA samples were assessed using the Clariom™ S Assay Human Platform. cDNA was synthesized using the GeneChip WT (Whole Transcript) Amplification Kit as described by the manufacturer. The sense cDNA was then fragmented and biotin-labeled with terminal deoxynucleotidyl transferase (TdT) using the GeneChip WT Terminal labeling kit. Approximately 5.5 μg of labeled DNA target was hybridized to the Affymetrix GeneChip Array at 45 °C for 16 h. The hybridized arrays were washed and stained on a GeneChip Fluidics Station 450 and scanned using a GCS3000 scanner. Probe cell intensity data computation and CEL file generation were performed using Affymetrix® GeneChip Command Console® Software version 6.0+ (AGCC, www.thermofisher.com/kr/ko/home/life-science/microarray-analysis/microarray-analysis-instruments-software-services/microarray-analysis-software/affymetrix-genechip-command-console-software.html, accessed on 1 September 2021). The CEL file is a binary format that contains the intensity calculated result for the pixel values of the DAT file and is used to extract normalized intensity to be used for actual analysis in Affymetrix® Power Tools version 2.11.4 (APT, www.thermofisher.com/kr/en/home/life-science/microarray-analysis/microarray-analysis-partners-programs/affymetrix-developers-network/affymetrix-power-tools.html, accessed on 1 September 2021). […]

[4] = tested on: LDLR; assay: RT-qPCR analysis of LDLR mRNA expression in HepG2 cells; assay type: cell-based, human; settings: HepG2 cells, 3, 10 and 30 μM, 24 h
Procedure: (§2) To validate that KRX-104130 increased the LDLR gene expression through the DEG analysis, LDLR mRNA expression was investigated in KRX-104130–treated HepG2 cells.
The mRNA expression levels of LDLR in the HepG2 cells were determined by real-time quantitative PCR (RT-qPCR) at the Cosmo Genetech (Sungsoo, Seoul, Korea). The total RNA was extracted from the cultured cells using an RNeasy mini kit (Qiagen, Valencia, CA, USA), and gene expression was analyzed by RT-qPCR using a Bio-Rad CFX96 system (Hercules, CA, USA). The mRNA expression levels were investigated three times in each sample treated with 0 μM, 3 μM, 10 μM, and 30 μM KRX-104130 for 24 h, and each result was obtained from three independent experiments, for 12 samples. For LDLR, the forward primer was 5′-CTCCCGCCAAGATCAAGAAA-3′, and the reverse primer was 5′-GAGATCTAGGGTGATGCCATTG-3′. The housekeeping gene, glyceraldehyde 3-phosphate dehydrogenase (GAPDH), was used as an internal control. The forward primer was 5′-TTGCCATCAATGACCCCTTCA-3′, and the reverse primer was 5′-CGC CCC ACT TGA TTT TGG A-3′. The PCR conditions for all genes were 40 cycles of pre-denaturation at 95 °C for 3 min, amplification at 62 °C for 30 s, and 95 °C for 10 s. The qPCR was performed using CFX manager (Version 3.1).

[5] = tested on: LDLR; assay: Western blot assay of LDLR protein expression in HepG2 cells; assay type: cell-based, human; settings: HepG2 cells, 3, 10 and 30 μM
Procedure: as §2
The protein expression levels of LDLR in the HepG2 cells were determined by Western blot assay at Cosmo Genetech (Sungsoo, Seoul, Korea). Briefly, cell protein extracts were prepared using radioimmunoprecipitation assay buffer (Thermo Scientific, Pierce, Rockford, IL, USA). Twenty micrograms of protein lysate were separated by electrophoresis on a 10% sodium dodecyl-sulfate (SDS)-polyacrylamide gel electrophoresis (PAGE) gel (Bio-Rad, Hercules, CA, USA) and transferred to a nitrocellulose membrane (Hybond-C Extra; GE Healthcare, Piscataway, NJ, USA). Nonspecific binding was blocked with 5% milk and incubated with 1:1000 primary antibody (LDLR Rabbit-mAb, #ab52818, Abcam) overnight at 4 °C. The secondary antibodies (horseradish peroxidase [HRP]-conjugated mouse anti-rabbit IgG, #SC-2357, Santa Cruz) were diluted 1:3000 in a fresh blocking solution. Protein bands were detected using the SuperSignal West Femto Kit (Thermo Fisher Scientific Inc., Waltham, MA, USA).

[6] = tested on: methionine-choline-deficient (MCD) diet induced NASH mouse model; assay: MCD diet-induced NASH mouse model; assay type: in vivo, C57BL/6 mice; settings: 30 mg/kg once-daily oral, 4 weeks
Procedure: In addition, the MCD diet-induced histopathological changes, such as steatosis and fibrosis in liver tissues, were ameliorated by treatment with KRX-104130 (Figure 8D).
Animal studies were carried out following the guidelines for animal care approved by the Institutional Animal Care and Use Committee at the Korea Research Institute of Chemical Technology (approval number: 2020-6A-10-01). Nine-week-old male C57BL/6 mice (Orient Bio, Sungnam, Korea) were randomly divided into three groups: a control group that was fed MCS diet, the NASH model group, and the treatment group that was fed an MCD diet with once-daily oral administration of vehicle (0.5% carboxymethyl cellulose) or 30 mg/kg KRX-104130. After 4 weeks of feeding, the mice were fasted overnight, and blood and tissue samples were obtained for biochemical and histological analyses. Liver TG levels and serum concentrations of liver injury markers, including ALT and AST, were determined using a colorimetric kit (MAK266, Sigma-Aldrich, St. Louis, MO, USA) or biochemical analyzer (AU480, Beckman Coulter, Atlanta, GA, USA), respectively, according to the manufacturer’s instructions. The left lobe of the liver was fixed in 10% neutralized buffered formalin and embedded in paraffin. Histological examination was performed using hematoxylin and eosin (H&E) and picrosirius red staining of 5 µm-thick sections.

[7] = Plasma pharmacokinetic profile in mice (I.V. and P.O.); settings: for AUC(0-t): AUC0–t, n=3

T2 sequence (Q99705 whole entry): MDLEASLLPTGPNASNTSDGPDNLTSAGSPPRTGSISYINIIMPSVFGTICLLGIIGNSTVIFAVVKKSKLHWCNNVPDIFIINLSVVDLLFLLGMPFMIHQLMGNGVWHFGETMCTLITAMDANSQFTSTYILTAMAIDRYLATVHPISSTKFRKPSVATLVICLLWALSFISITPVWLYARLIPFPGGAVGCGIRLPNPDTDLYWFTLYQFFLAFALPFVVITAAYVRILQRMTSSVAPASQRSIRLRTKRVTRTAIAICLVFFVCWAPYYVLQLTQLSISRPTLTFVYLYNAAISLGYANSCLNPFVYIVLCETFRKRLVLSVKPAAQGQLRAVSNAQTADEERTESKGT
T1 sequence (Q12809 whole entry): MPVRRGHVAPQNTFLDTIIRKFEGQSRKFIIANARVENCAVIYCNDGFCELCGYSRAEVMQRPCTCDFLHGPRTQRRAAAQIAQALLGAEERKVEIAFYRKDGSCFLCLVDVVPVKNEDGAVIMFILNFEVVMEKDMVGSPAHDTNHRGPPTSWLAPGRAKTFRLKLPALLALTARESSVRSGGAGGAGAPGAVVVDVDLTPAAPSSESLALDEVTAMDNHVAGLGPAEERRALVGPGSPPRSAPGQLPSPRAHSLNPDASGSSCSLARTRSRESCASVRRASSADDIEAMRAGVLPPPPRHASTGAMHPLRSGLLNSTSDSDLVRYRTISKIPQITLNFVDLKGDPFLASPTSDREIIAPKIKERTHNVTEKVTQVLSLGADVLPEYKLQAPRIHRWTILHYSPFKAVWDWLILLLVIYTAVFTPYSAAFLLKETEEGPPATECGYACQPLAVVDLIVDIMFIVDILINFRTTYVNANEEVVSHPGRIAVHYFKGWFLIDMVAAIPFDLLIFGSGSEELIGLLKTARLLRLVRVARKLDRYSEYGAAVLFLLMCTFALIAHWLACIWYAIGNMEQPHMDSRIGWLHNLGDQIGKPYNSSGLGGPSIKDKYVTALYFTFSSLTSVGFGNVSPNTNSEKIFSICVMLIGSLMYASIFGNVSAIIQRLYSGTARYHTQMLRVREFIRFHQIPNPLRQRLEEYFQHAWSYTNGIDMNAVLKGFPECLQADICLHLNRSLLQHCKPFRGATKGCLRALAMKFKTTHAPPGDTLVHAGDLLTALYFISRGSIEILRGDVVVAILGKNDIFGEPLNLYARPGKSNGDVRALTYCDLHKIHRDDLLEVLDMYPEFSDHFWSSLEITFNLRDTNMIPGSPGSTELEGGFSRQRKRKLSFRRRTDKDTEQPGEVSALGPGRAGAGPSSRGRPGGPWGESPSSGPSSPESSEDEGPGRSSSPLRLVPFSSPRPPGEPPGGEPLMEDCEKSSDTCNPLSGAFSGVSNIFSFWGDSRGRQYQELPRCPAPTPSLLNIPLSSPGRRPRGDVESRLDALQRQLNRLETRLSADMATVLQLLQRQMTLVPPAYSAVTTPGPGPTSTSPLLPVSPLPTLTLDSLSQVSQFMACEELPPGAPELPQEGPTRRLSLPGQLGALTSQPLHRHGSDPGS

inhibition at 10 µM [2]: 94.8%
IC50 [2]: 10 nM
SMILES: COc1nc2cc(F)c(F)cc2nc1NC(=O)NC1CCN(Cc2ccc3[nH]ncc3c2)CC1 [KRX-104161]
IC50 [1]: 180 nM

SMILES: COc1nc2cc(F)c(F)cc2nc1NC(=O)NC1CCN(Cc2cc3ccccc3[nH]2)CC1 [KRX-104130]
Fold change (FC) CCNE2 [3]: −1.96
Fold change (FC) DNAJB9 [3]: 3.50
Fold change (FC) HERPUD1 [3]: 3.17
Fold change (FC) HSD17B7 [3]: 2.22
Fold change (FC) INSIG1 [3]: 2.85
Fold change (FC) LDLR [3]: 2.79
Fold change (FC) MSMO1 [3]: 3.09
Fold change (FC) TIPARP [3]: 3.98
IC50 [1]: 13000 nM
LDLR mRNA expression level [4]: LDLR upregulation in a concentration-dependent manner
LDLR protein level [5]: increased in a concentration-dependent manner
MCD diet-induced histopathological changes (steatosis and fibrosis in liver tissues) ([6]; H&E and picrosirius red): ameliorated
Liver TG levels ([6]; mean ± S.E.M.): 29.73 ± 1.54
Serum ALT ([6]; mean ± S.E.M.): 163.67 ± 25.85
Serum AST ([6]; mean ± S.E.M.): 170.5 ± 27.27
Tolerability / death after administration to mice ([7]; mice, pharmacokinetic study): without specific abnormalities
Vd ([7]; mouse, plasma, iv, 10 mg/kg): 14.2 ± 0.72 L/kg
clearance ([7]; mouse, plasma, iv, 10 mg/kg): 36.8 mL/min/kg
half-life ([7]; mouse, plasma, iv, 10 mg/kg): 5.71 ± 1.03 h
AUC(0-t) ([7]; mouse, plasma, iv, 10 mg/kg, mice, I.V.): 4550 ± 220 ng·h/mL
bioavailability ([7]; mouse, plasma, oral, 20 mg/kg): 20.3%
Cmax ([7]; mouse, plasma, po, 20 mg/kg): 130 ± 50 ng/mL
Tmax ([7]; mouse, plasma, po, 20 mg/kg): 6.67 ± 2.31 h
half-life ([7]; mouse, plasma, po, 20 mg/kg): 10.2 h
AUC(0-t) ([7]; mouse, plasma, po, 20 mg/kg, mice, P.O.): 1720 ± 850 ng·h/mL
inhibition at 10 µM [2]: 97.1%
IC50 [2]: 20 nM
